Patent US20070224674A1, “Selective Enrichiment of Microorganisms for Desired Metabolic Properties” (COMMONWEALTH SCIENTIFIC AND INDUSTRIAL RESEARCH OR, priority 2003, published 2007)

Assays:
P. putida = test: Growth on glucose and benzyl alcohol in defined medium, batch culture; type: cell-based, Pseudomonas putida F1
Method: (§1) For these control experiments a steady state culture of an Escherichia coli BL21DE3 which was supplied by Novagen (Novagen Inc., Madison, Wis., USA) and was expected to grow on glucose only was used. The culture was established using 5 ml of an E. coli culture taken from a 100 ml shake flask culture which had been grown for 17 hours shaking at 200 rpm and 30° C. in defined medium with 1.0 g l^−1 glucose as the carbon source. Although the feed contained another substrate (benzyl alcohol), no growth on this substrate was expected because this microbial population was known to be unable to use this carbon source for growth. When steady state had been established, 10 mL of a 100 mL shake flask culture of Pseudomonas putida F1 was added. The P. putida F1 culture had been grown at 30° C. for 17 hours, with shaking at 200 rpm, in defined medium with 1.0 g l^−1 glucose as the carbon source. The P. putida F1 was supplied by the American Type Culture Collection (ATCC) and was expected to grow on benzyl alcohol and/or glucose. The OUR was expected to change as a result of the increased microbial activity after the addition of P. putida.
(§2) The success of this control experiment was dependent upon the ability of E. coli to grow on glucose in DM and grow in DM in the presence of benzyl alcohol (i.e. benzyl alcohol is not toxic to E. coli). Also of key importance was the inability of E. coli to grow on benzyl alcohol. […] Although P. putida is well known for its ability to grow on a wide range of aromatic substrates (Wackett, & Hershberger, 2001), growth on benzyl alcohol has not been reported. The optical density at inoculation was calculated (based upon the optical density on the inocula) as 0.021 (E. coli) and 0.026 (P. putida). The cultures were incubated shaking at 200 rpm and 30° C. The optical density was measured at 600 nm after incubation for 23.5 and 75 hours.

E. coli = test: as above; type: cell-based, Escherichia coli BL21DE3
Method: as §1, §2

[1] = test system: E. coli and P. putida continuous culture; test: Continuous culture population shift, residual substrate by gas chromatography; type: cell-based, Escherichia coli BL21DE3, Pseudomonas putida F1; settings: when BOD stabilised after addition of P. putida; feed 1.0 g l^−1 benzyl alcohol and 0.5 g l^−1 glucose, 30 ml h^−1
Method: Based on the BOD it was clear that steady state had been attained (it is generally assumed that steady state has been established after turnover of at least three vessel volumes which, in this example would occur after 37.5 hours). After 125.7 hours (equivalent to 10 vessel volumes) of continuous operation, P. putida was added to the culture. Initially, there was no change in the BOD so to ensure P. putida was not being washed out of the vessel the feed flow rate was reduced from 60 ml h^−1 to 30 ml h^−1. […] This observation was confirmed by measuring the residual benzyl alcohol in the culture supernatant, which had started to decrease. As the P. putida population developed the BOD increased, peaking initially at nearly 1400 mg l^−1 before declining to 1050 mg l^−1 after which a second peak in the BOD was observed. […] After the second BOD peak, the BOD stabilised at 1040 mg l^−1 which was the expected BOD for a feed containing 0.5 g l^−1 glucose and 1.0 g l^−1 benzyl alcohol (see calculation below).
The feed consisting of DM containing 0.5 g l^−1 glucose and 1.0 g l^−1 benzyl alcohol was fed into a vessel at 30° C. and pH 7. The feed flow rate was initially 60 ml h^−1. […] At the same time that the BOD stabilised the measured residual benzyl alcohol concentration was zero. […]

[2] = test system: microorganisms from activated sludge; test: Enrichment of activated sludge on 1-methyl-2-pyrrolidinone, growth from BOD; type: cell-based; settings: 30° C., pH 7.0
Method: Fresh activated sludge sourced from a wastewater treatment facility was used as the source of microorganisms for enrichment of 1-methyl-2-pyrrolidinone-utilising microbes. […] The enrichment process was performed at 30° C. and pH 7.0 (the pH was maintained at 7.0 by the automatic addition of a potassium hydroxide or hydrochloric acid solution as the alkali and acid, respectively). The feed flow rate was 60 ml h^−1.
After the addition of the activated sludge to a vessel the BOD was high (greater than 500 mg l^−1). […] After 2 ml of 1-methyl-2-pyrrolidinone was added to the vessel (Arrow A; FIG. 8) a rapid rise in BOD was observed indicating exponential growth (FIG. 8). […] Growth is exponential between 1220 and 1460 minutes and μmax can therefore be calculated as 0.52 h^−1, which corresponds to a doubling time of 1.34 hours. The rapid decline in BOD (Arrow B, FIG. 8) was due to the oxygen consumption of the microbial population being greater than the amount of oxygen supplied to the culture.

[3] = stated in words; cited from earlier work
Isolate 2B = test: 1-methyl-2-pyrrolidinone degradation in liquid batch culture; type: cell-based; settings: for Residual 1-methyl-2-pyrrolidinone concentration: 1.0 g l^−1 added
Method: (§3) The ability of the pure isolates to grow on 1-methyl-2-pyrrolidinone as the sole source of carbon in liquid culture was also evaluated (Table 3). The cultures were grown in 50 ml screw-capped plastic tubes that contained 10 ml of defined medium and 1.0 g l^−1 1-methyl-2-pyrrolidinone. To ensure each culture was inoculated with a consistent number of cells, 10 ml of medium was seeded with 100 μl of a single colony that had been resuspended in 1 ml of DM. The cultures were incubated at 30° C. shaking at 190 rpm. A single 10 ml culture was harvested by centrifugation at each time point and the supernatant kept for determination of the 1-methyl-2-pyrrolidinone concentration. The 1-methyl-2-pyrrolidinone concentrations were estimated using gas chromatography

Isolate 2A = test: as above; type: cell-based; settings: for Residual 1-methyl-2-pyrrolidinone concentration: 1.0 g l^−1 added
Method: as §3

Isolate 1D = test: Dodecane degradation in liquid batch culture; type: cell-based; settings: for Residual dodecane concentration: 0.75 g l^−1 added
Method: (§4) The ability of the pure isolates to grow on dodecane as the sole source of carbon in liquid culture was also evaluated and is shown in Table 5. The cultures were grown in 50 ml screw-capped plastic tubes that contained 10 ml of defined medium and 0.75 g l^−1 dodecane. To ensure each culture was inoculated with a consistent number of cells, 10 ml of medium was inoculated with 100 μl of a single colony that had been resuspended in 1 ml of DM. The cultures were incubated at 30° C. shaking at 190 rpm. Residual dodecane was extracted by the addition of 20 ml of hexane to a single 10 ml culture at each time point. The tube was shaken vigorously for one minute and after phase separation, the upper layer was kept for determination of the dodecane concentration. The dodecane concentrations were estimated using gas chromatography.

Isolate 1B = test: Dodecane degradation in liquid batch culture; type: cell-based; settings: for Residual dodecane concentration: 0.75 g l^−1 added
Method: as §4

Isolate 1C = test: Dodecane degradation in liquid batch culture; type: cell-based; settings: for Residual dodecane concentration: 0.75 g l^−1 added
Method: as §4

[4] = test system: 1,3-propanediol-degrading microbial population (activated sludge); test: Enrichment of activated sludge on 1,3-propanediol, growth from BOD; type: cell-based
Method: Isolation of 1,3-propanediol-degrading microorganisms was used to test the feedback loop between feed flow rate and OUR. The feed medium was a defined medium designated 461S (Appendix I) which contained 1.0 g l^−1 1,3-propanediol and the initial flow rate was 43.5 ml h^−1. The operating temperature was 30° C. and pH 7.0. The medium was inoculated with ˜700 ml of activated sludge. The feed flow rate was increased by 20 ml h^−1 if the BOD remained constant for four vessel volumes. After an initial peak in the BOD, which was due to 1,3-propanediol being in excess, the BOD remained constant over a range of flow rates. […] This observation was expected because the inferred μmax of the population from the initial peak in BOD at the start of the experiment was ˜0.25 h^−1 (a doubling time of 2.8 hours). […] could be achieved with any microbial population that is established in the culture because there is a good probability that mutants which can grow at a higher rate will be selected at high feed flow rates.

[5] = benzyl alcohol 1.0 g l^−1 only carbon source, 23.5 hours
[6] = benzyl alcohol 1.0 g l^−1 only carbon source, 75 hours
[7] = benzyl alcohol 1.0 g l^−1 with glucose 0.1 g l^−1, 23.5 hours
[8] = benzyl alcohol 1.0 g l^−1 with glucose 0.1 g l^−1, 75 hours
[9] = batch culture, over a 168 hours period
[10] = glucose 0.1 g l^−1 only carbon source, 23.5 hours incubation, 30° C.
[11] = glucose 0.1 g l^−1 only carbon source, 75 hours incubation, 30° C.

OCc1ccccc1 [Benzyl alcohol, benzyl alcohol]
Optical density at 600 nm (P. putida; [5]): 0.021 | Optical density at 600 nm (P. putida; [6]): 0.417 | Optical density at 600 nm (P. putida; [7]): 0.042 | Optical density at 600 nm (P. putida; [8]): 0.353 | Optical density at 600 nm (E. coli; [5]): 0.027 | Optical density at 600 nm (E. coli; [6]): 0.024 | Optical density at 600 nm (E. coli; [7]): 0.102 | Optical density at 600 nm (E. coli; [8]): 0.097 | Residual benzyl alcohol concentration [1]: zero

CN1CCCC1=O [1-methyl-2-pyrrolidinone]
μmax of the population growing on the substrate ([2]; calculated from exponential BOD rise between 1220 and 1460 minutes): 0.52 h⁻¹ | Doubling time ([2]; corresponds to μmax): 1.34 h | Solubility in water [3]: soluble in water | Residual 1-methyl-2-pyrrolidinone concentration (Isolate 2B; 24 h after inoculation): ND (Not detected (limit of detection · 20 mg l^−1)) | Residual 1-methyl-2-pyrrolidinone concentration (Isolate 2B; 48 h after inoculation): ND (Not detected (limit of detection · 20 mg l^−1)) | Residual 1-methyl-2-pyrrolidinone concentration (Isolate 2B; 72 h after inoculation): ND (Not detected (limit of detection · 20 mg l^−1)) | Residual 1-methyl-2-pyrrolidinone concentration (Isolate 2B; 96 h after inoculation): ND (Not detected (limit of detection · 20 mg l^−1)) | Residual 1-methyl-2-pyrrolidinone concentration (Isolate 2B; 168 h after inoculation): ND (Not detected (limit of detection · 20 mg l^−1)) | Time to completely degrade 1.0 g l^−1 1-methyl-2-pyrrolidinone (Isolate 2B; batch culture): ≤ 24 h | Residual 1-methyl-2-pyrrolidinone concentration (Isolate 2A; 24 h after inoculation): NDa (Not detected (limit of detection · 20 mg l^−1)) | Residual 1-methyl-2-pyrrolidinone concentration (Isolate 2A; 48 h after inoculation): ND (Not detected (limit of detection · 20 mg l^−1)) | Residual 1-methyl-2-pyrrolidinone concentration (Isolate 2A; 72 h after inoculation): ND (Not detected (limit of detection · 20 mg l^−1)) | Residual 1-methyl-2-pyrrolidinone concentration (Isolate 2A; 96 h after inoculation): ND (Not detected (limit of detection · 20 mg l^−1)) | Residual 1-methyl-2-pyrrolidinone concentration (Isolate 2A; 168 h after inoculation): ND (Not detected (limit of detection · 20 mg l^−1)) | Time to completely degrade 1.0 g l^−1 1-methyl-2-pyrrolidinone (Isolate 2A; batch culture): ≤ 24 h

CCCCCCCCCCCC [dodecane]
Residual dodecane concentration (Isolate 1D; 24 h after inoculation): 1080 mg/L | Residual dodecane concentration (Isolate 1D; 48 h after inoculation): 920 mg/L | Residual dodecane concentration (Isolate 1D; 72 h after inoculation): 740 mg/L | Residual dodecane concentration (Isolate 1D; 96 h after inoculation): 410 mg/L | Residual dodecane concentration (Isolate 1D; 168 h after inoculation): 310 mg/L | Dodecane added to the culture that was used (Isolate 1D; [9]): 50 to 60% | Residual dodecane concentration (Isolate 1B; 24 h after inoculation): 920 mg/L | Residual dodecane concentration (Isolate 1B; 48 h after inoculation): 160 mg/L | Residual dodecane concentration (Isolate 1B; 72 h after inoculation): 420 mg/L | Residual dodecane concentration (Isolate 1B; 96 h after inoculation): 270 mg/L | Residual dodecane concentration (Isolate 1B; 168 h after inoculation): 290 mg/L | Dodecane added to the culture that was used (Isolate 1B; [9]): 50 to 60% | Residual dodecane concentration (Isolate 1C; 24 h after inoculation): 630 mg/L | Residual dodecane concentration (Isolate 1C; 48 h after inoculation): 620 mg/L | Residual dodecane concentration (Isolate 1C; 72 h after inoculation): 440 mg/L | Residual dodecane concentration (Isolate 1C; 96 h after inoculation): 440 mg/L | Residual dodecane concentration (Isolate 1C; 168 h after inoculation): 280 mg/L | Dodecane added to the culture that was used (Isolate 1C; [9]): 50 to 60% | Solubility in water [3]: practically insoluble in water

OCCCO [1,3-propanediol]
Doubling time ([4]; corresponds to inferred μmax): 2.8 h | Inferred μmax of the population ([4]; from the initial peak in BOD, 1.0 g l^−1 in feed, 30° C., pH 7.0): ~0.25 h⁻¹

O=C[C@H](O)[C@@H](O)[C@H](O)[C@H](O)CO [Glucose, glucose]
Optical density at 600 nm (P. putida; [10]): 0.170 | Optical density at 600 nm (P. putida; [11]): 0.138 | Optical density at 600 nm (E. coli; [10]): 0.116 | Optical density at 600 nm (E. coli; [11]): 0.102
